Results published in PubChem BioAssay AID1918994 (Molecular Pharmacology Branch, DTP, NCI, 2023).

System: 292921-168-R-J2-PDC complex spheroid growth
Assay: Anticancer human tumor 292921-168-R-J2-PDC patient-derived pancreatic carcinoma cell line growth inhibition [AhR]
Conditions: for IC50: curve of first compound; for viability, T/C: stronger effect = lower value
Source text: Multicellular complex tumor spheroid response to aryl hydrocarbon receptor antagonists in combination with a variety of drugs and investigational agents in selected tumor cell lines
The current study was undertaken to assess response to aryl hydrocarbon receptor antagonists in combination with standard-of-care drugs and investigational agents in solid tumor complex spheroid models. Complex spheroids include a stromal component modeled by human endothelial cells (HUVEC) and fibroblasts modeled by human mesenchymal stem cells (MSCs). The concentration ranges selected for each drug and investigational agent were based upon clinically achievable concentrations if the clinical Cmax of the agent was known.
Compounds. The drugs and investigational agents: BAY 2416964 (NSC825713), GNF351 (NSC835774), CH-223191 (NSC835775), CPI-455 (NSC825282), aza-TdCyd (NSC777586), decitabine (NSC127716), belinostat (NSC758774), entinostat (NSC756642), pevonedistat (NSC761192), tazemetostat (NSC777109), talazoparib (NSC765396), olaparib (NSC753686), selinexor (NSC780203), nedisertib (M3814, NSC802822), bortezomib (NSC756655), venetoclax (NSC766270), doxorubicin (NSC123127), elimusertib (BAY189344, NSC800525), ceralasertib (AZD6738, NSC777638), TAK-243 (NSC785004), alisertib (NSC759677), etoposide (NSC141540), topotecan (NSC609699), eribulin (NSC707389), gemcitabine (NSC613327), carboplatin (NSC241240), cisplatin (NSC119875), and SN-38 (NSC673596) were obtained from the National Cancer Institute (NCI) Developmental Therapeutics Program Chemical Repository (32). The FDA-approved anticancer drug set is available from the Developmental Therapeutics Program at https://dtp.cancer.gov/organization/dscb/obtaining/available plates.htm. […] The stock solutions were prepared in dimethyl sulfoxide (DMSO, Sigma-Aldrich, St. Louis, MO, cat. D2650), except for the platinum compounds which were prepared in saline (Quality Biological, Gaithersburg, MD, cat. 114-055-101), at 800-fold the tested concentration and stored at -70 degrees C prior to their use. All drugs and investigational agents were tested over a range starting from a high concentration at or near the clinical Cmax and decreasing in half-log increments. If the clinical Cmax for an agent had not been determined, the highest concentration tested was 10 microM (Table 1).
Cell Culture. All cells were maintained in an incubator at 37 degrees C and 5% CO2 with 95% humidity. The PDC lines were cultured according to standard operating procedures established by the NCI PDMR (https://pdmr.cancer.gov). Briefly, all PDCs were thawed and cultured in Matrigel-coated flasks prepared with a working solution of 1X Ham's F-12 nutrient mix, without supplementation (Invitrogen, Waltham, MA, cat. 11765054), 100 U/mL penicillin-streptomycin (Invitrogen, cat. 15140122), and 2.5% Matrigel (Corning Inc., Corning, NY, cat. 354248) for the first three passages. All PDCs were cultured in complete DMEM/F-12 media containing advanced DMEM/F-12 (Invitrogen, cat. 12634028), 4.9% defined fetal bovine serum, heat inactivated (HyClone Laboratories Inc., Logan, UT, cat. SH30070.03HI), 389 ng/mL hydrocortisone (Sigma-Aldrich, cat. H4001), 9.7 ng/mL human EGF recombinant protein (Invitrogen, cat. PHG0313), 23.4 microg/mL adenine (Sigma-Aldrich, cat. A2786), 97.3 U/mL penicillin-streptomycin (Invitrogen, cat. 15140122), 1.9 mM L-glutamine (Invitrogen, cat. 25030081), and 9.7 microM Y-27632 dihydrochloride (Tocris Bioscience, Bristol, United Kingdom, cat. 1254). The PDCs were cultured in complete DMEM/F12 media without 10 microM Y-27632 dihydrochloride for at least two passages prior to the screen. The established cell lines NCI-H1341 and […] were cultured in DMEM/F-12, HEPES (Invitrogen, cat. 11330032), 5% defined fetal bovine serum (HyClone Laboratories Inc., cat. SH30070.03), ITS premix universal culture supplement [insulin (5 microg/mL), transferrin (5 microg/mL), and selenious acid (5 ng/mL)] […]

[1] = second compound 0.1 µM, first compound 0.0316 µM
[2] = second compound 0.1 µM, first compound 0.1 µM
[3] = second compound 0.1 µM, first compound 0.316 µM
[4] = second compound 0.1 µM, first compound 1 µM
[5] = second compound 0.1 µM, first compound 3.16 µM
[6] = second compound 0.1 µM, first compound 10 µM
[7] = second compound 0.316 µM, first compound 0.0316 µM
[8] = second compound 0.316 µM, first compound 0.1 µM
[9] = second compound 0.316 µM, first compound 0.316 µM
[10] = second compound 0.316 µM, first compound 1 µM
[11] = second compound 0.316 µM, first compound 3.16 µM
[12] = second compound 0.316 µM, first compound 10 µM
[13] = second compound 1 µM, first compound 0.0316 µM
[14] = second compound 1 µM, first compound 0.1 µM
[15] = second compound 1 µM, first compound 0.316 µM
[16] = second compound 1 µM, first compound 1 µM
[17] = second compound 1 µM, first compound 3.16 µM
[18] = second compound 1 µM, first compound 10 µM
[19] = second compound 3.16 µM, first compound 0.0316 µM
[20] = second compound 3.16 µM, first compound 0.1 µM
[21] = second compound 3.16 µM, first compound 0.316 µM
[22] = second compound 3.16 µM, first compound 1 µM
[23] = second compound 3.16 µM, first compound 3.16 µM
[24] = second compound 3.16 µM, first compound 10 µM
[25] = second compound 10 µM, first compound 0.0316 µM
[26] = second compound 10 µM, first compound 0.1 µM
[27] = second compound 10 µM, first compound 0.316 µM
[28] = second compound 10 µM, first compound 1 µM
[29] = second compound 10 µM, first compound 3.16 µM
[30] = second compound 10 µM, first compound 10 µM
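Further: spheroids exposed to compounds for seven days after three days of growth.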

Row | Structure (SMILES) | IC50 (second compound 0.1 µM) | IC50 (second compound 0.316 µM) | IC50 (second compound 1 µM) | IC50 (second compound 3.16 µM) | IC50 (second compound 10 µM) | viability, T/C [1] | viability, T/C [2] | viability, T/C [3] | viability, T/C [4] | viability, T/C [5] | viability, T/C [6] | viability, T/C [7] | viability, T/C [8] | viability, T/C [9] | viability, T/C [13] | viability, T/C [14] | viability, T/C [19] | viability, T/C [20] | viability, T/C [25] | viability, T/C [26] | further results
1 | COc1cc(Nc2ncc3c(n2)-c2ccc(Cl)cc2C(c2c(F)cccc2OC)=NC3)ccc1C(=O)O + CC(CO)NC(=O)c1cc(-c2ccc(Cl)cc2)nn(-c2cnn(C)c2)c1=O | < 31.6 nM | < 31.6 nM | < 31.6 nM | < 31.6 nM | < 31.6 nM | 51% | 41.9% | 44.8% | 40.1% | 40.7% | 31.4% | 50.8% | 40.1% | 44.1% | 52.5% | 40.3% | 45.3% | 36.2% | 38.5% | 33.4% | viability, T/C [10]: 40.9%; viability, T/C [11]: 34.3%; viability, T/C [12]: 33.3%; viability, T/C [15]: 39.3%; viability, T/C [16]: 47.9%; viability, T/C [17]: 37.3%; viability, T/C [18]: 30%; viability, T/C [21]: 44.3%; viability, T/C [22]: 42%; viability, T/C [23]: 36.8%; viability, T/C [24]: 28.4%; viability, T/C [27]: 37.3%; viability, T/C [28]: 38.8%; viability, T/C [29]: 32.6%; viability, T/C [30]: 26.4%
2 | Cn1ncnc1C1c2n[nH]c(=O)c3cc(F)cc(c23)NC1c1ccc(F)cc1 (stereo not given) + CC(CO)NC(=O)c1cc(-c2ccc(Cl)cc2)nn(-c2cnn(C)c2)c1=O | > 100 nM | > 100 nM | > 100 nM | > 100 nM | > 100 nM | 94.3% | 87.6% |  |  |  |  | 96.5% | 79.9% |  | 86.3% | 94.3% | 77.1% | 77.4% | 67% | 64.6% | viability, T/C (second compound 0.1 µM, first compound 0.000316 µM): 103%; viability, T/C (second compound 0.1 µM, first compound 0.001 µM): 109%; viability, T/C (second compound 0.1 µM, first compound 0.00316 µM): 100%; viability, T/C (second compound 0.1 µM, first compound 0.01 µM): 99.8%; viability, T/C (second compound 0.316 µM, first compound 0.000316 µM): 109%; viability, T/C (second compound 0.316 µM, first compound 0.001 µM): 97.5%; viability, T/C (second compound 0.316 µM, first compound 0.00316 µM): 104%; viability, T/C (second compound 0.316 µM, first compound 0.01 µM): 96%; viability, T/C (second compound 1 µM, first compound 0.000316 µM): 108%; viability, T/C (second compound 1 µM, first compound 0.001 µM): 106%; viability, T/C (second compound 1 µM, first compound 0.00316 µM): 99.6%; viability, T/C (second compound 1 µM, first compound 0.01 µM): 89.9%; viability, T/C (second compound 3.16 µM, first compound 0.000316 µM): 92.2%; viability, T/C (second compound 3.16 µM, first compound 0.001 µM): 99.2%; viability, T/C (second compound 3.16 µM, first compound 0.00316 µM): 92.6%; viability, T/C (second compound 3.16 µM, first compound 0.01 µM): 92.9%; viability, T/C (second compound 10 µM, first compound 0.000316 µM): 68.5%; viability, T/C (second compound 10 µM, first compound 0.001 µM): 73.3%; viability, T/C (second compound 10 µM, first compound 0.00316 µM): 75.8%; viability, T/C (second compound 10 µM, first compound 0.01 µM): 73%
3 | NS(=O)(=O)OCC1CC(n2ccc3c(NC4CCc5ccccc54)ncnc32)CC1O (stereo not given) + CC(CO)NC(=O)c1cc(-c2ccc(Cl)cc2)nn(-c2cnn(C)c2)c1=O | 213 nM | 221 nM | 223 nM | 208 nM | 169 nM | 117% | 98.1% | 24.8% | 5.49% | 4.31% | 5.11% | 125% | 98% | 28.5% | 116% | 101% | 105% | 93.5% | 89.6% | 73.1% | viability, T/C [10]: 6.03%; viability, T/C [11]: 3.81%; viability, T/C [12]: 4.31%; viability, T/C [15]: 27.8%; viability, T/C [16]: 5.81%; viability, T/C [17]: 4.08%; viability, T/C [18]: 4.94%; viability, T/C [21]: 25.2%; viability, T/C [22]: 5.74%; viability, T/C [23]: 4%; viability, T/C [24]: 5.65%; viability, T/C [27]: 22.2%; viability, T/C [28]: 6.76%; viability, T/C [29]: 3.96%; viability, T/C [30]: 5.6%
4 | O=C(C=Cc1cccc(S(=O)(=O)Nc2ccccc2)c1)NO + CC(CO)NC(=O)c1cc(-c2ccc(Cl)cc2)nn(-c2cnn(C)c2)c1=O | 279 nM | 327 nM | 261 nM | 146 nM | < 31.6 nM | 72.2% | 56.7% | 48.6% | 35.1% | 28.5% | 1.96% | 74% | 63.3% | 46.1% | 67.8% | 57.3% | 64% | 52% | 50.4% | 43.6% | viability, T/C [10]: 36.3%; viability, T/C [11]: 30.7%; viability, T/C [12]: 2.62%; viability, T/C [15]: 46.5%; viability, T/C [16]: 35.4%; viability, T/C [17]: 28.7%; viability, T/C [18]: 3.31%; viability, T/C [21]: 41.9%; viability, T/C [22]: 31%; viability, T/C [23]: 22.5%; viability, T/C [24]: 2.61%; viability, T/C [27]: 39.1%; viability, T/C [28]: 29.1%; viability, T/C [29]: 20%; viability, T/C [30]: 1.62%
